For orientation: melting point means the temperature, or range, at which the solid turns liquid. Turning to `O=C(O)c1cc(Oc2ccc(Cl)cc2)c(Cl)cc1[N+](=O)[O-]`, the melting point fell in the range of 160 to 162 °C.
Turning to `O=C(Nc1cccc(Cl)c1)ONC1=Nc2ccc(Cl)cc2C(c2ccccc2)=NC1`, the melting point lay within 158 to 159 °C.
`O=C(NC(=O)c1c(F)cccc1F)Nc1ccc(Cl)cn1` registered a melting point of 226 to 229 °C.
For `COc1ccc2oc3ccc(Br)cc3c2c1C(=O)Nc1ccncc1`, the melting point fell in the range of 270 to 273 °C.
`COC(=O)COc1ccc2c(c1)Oc1cc(O)ccc1C21OC(=O)c2ccccc21` (stereo not given) registered a melting point of 236 °C.
With `CCN(CC)C(=O)CCc1nc(-c2cccc(OC)c2)nc2ccccc12`, the melting point was 87 °C.
As for `CCOC(=O)c1c(C(F)(F)F)nc(C(F)(F)F)c(C(=O)OC)c1N1CCCC1`, the figure is 68.5 to 70 °C; as for `O=C(O)c1cc2[nH]c3c(O)cccc3c(=O)n2n1`, 326 to 330 °C; as for `NC1=CC(=O)CC(c2cccc(Cl)c2Cl)C1` (stereo not given), 209 to 210 °C.
Regarding `N#CN1CCC2(CC1)CN(c1ccccc1F)c1ccccc12`, the melting point is 131 to 132 °C.
For `CC(=O)Oc1ccc(-c2c(C)c3cccc(OC(C)=O)c3oc2=O)c(OC(C)=O)c1`, the melting point lay within 119 to 120 °C.
With `O=C(NCCCCSc1ccncc1)c1ccccc1O`, the melting point fell in the range of 83 to 85 °C.
In the case of `O=C(O)c1cn(-c2ccc(F)cc2)c(C=Cc2ccncc2)cc1=O`, the melting point lay within 205 to 215 °C.
As to `O=C(NCc1ccc(C(=O)C(F)(F)F)cc1)c1cccnc1Oc1cccnc1`, the melting point was 134 to 136 °C.
In turn, `CC(=O)Oc1cc(C(=O)O)cc(C(=O)O)c1` registered a melting point of 240 °C.
`O=C(CCCCCN1CCN(c2cccc(C(F)(F)F)c2)CC1)N1Cc2ccc(OCCN3CCCCC3)cc2C1` returned a melting point of 88 °C.
`Cc1ccc(Nc2cccc(O)c2)cc1` gave a melting point of 86 to 88 °C.
`O=C(c1cc(C(F)(F)F)cc(C(F)(F)F)c1)N1CCC2(CC1)C(=O)NCN2c1ccc(Cl)cc1` showed a melting point of 233 to 235 °C.
The compound `Cc1ccc(-n2nc(C(F)(F)F)cc2-c2ccc(S(C)(=O)=O)cc2)cc1F` displayed a melting point of 158 to 160 °C.
Compound `CC(C)[C@H](NC(=O)N(C)Cc1csc(C2CCC2)n1)C(=O)N[C@@H](Cc1ccccc1)C[C@H](O)[C@H](Cc1ccccc1)NC(=O)OCc1cncs1` came in with a melting point of 74 to 76 °C.
Turning to `Cc1cc2cc(CN3CCC(C(=O)N(C)C)CC3)cnc2cc1NC(=O)c1ccc(-c2ccc(F)cc2)cc1`, the melting point was found to be 229 °C.
The compound `CCN(CC)CCOc1ccc2ncn(/C=C/C(=O)OC)c(=O)c2c1` registered a melting point of 131 to 133 °C.
Consider `CCOC(=O)/C=C/c1ccc(C2COc3c(C)c(C)c(NC(=O)CC(C)(C)C)c(C)c32)cc1` (stereo not given), for which the melting point fell in the range of 176 to 177 °C.
`CN(Cc1ccccc1)c1cc(C(=O)O)ccc1C(N)C(=O)O` (stereo not given) came in with a melting point of 193 °C.
For `N#Cc1cccc2[nH]ccc12`, the melting point was 115 to 116 °C.
Compound `O=C(CCl)NC[C@@H]1CN2C(=O)C[C@H]2O1` (racemic) came in with a melting point of 65 to 66.4 °C.
`CSc1cn(C)c2ccsc2c1=O` gave a melting point of 171 to 174 °C.
Under `COC(=O)c1cc2ccccc2n1-c1ccccn1` stands 158 to 159 °C; under `O=C(N[C@H](Cc1ccccc1C(F)(F)F)[C@@H](O)c1ccc(F)cc1)c1cccc2ccccc12` (racemic), 193 to 194 °C.
Turning to `CNC(=O)c1cc2c(nc(C)n2C)c(O)c1CC[C@@H](O)c1ccccc1`, the melting point was in the range of 247 to 249 °C.
As to `COc1ccc2c(c1)C(=O)N(c1ccc3c(c1)NCCN3)C2`, the melting point was 159 to 163 °C.
Take `CCCOc1nc(O)ns1`: the melting point worked out at 92 °C.
The compound `O=C(O)C=Cc1cc([N+](=O)[O-])c(F)cc1Cl` yielded a melting point of 164 to 171 °C.
For the compound `CC(C)C(=O)NC[C@H]1CN(c2ccc3c(c2)CCCc2cnn(C(=O)C(C)C)c2-3)C(=O)O1`, the melting point fell in the range of 75 to 80 °C.
In the case of `CC#CC(=O)Nc1cccc(-c2ccnc3c(C(=O)c4cccs4)cnn23)c1`, the melting point lay within 202 to 203 °C.

These data come from a melting point compilation (Tetko et al.; mined from patent text by program, amines drawn as free bases though some values may be those of a salt).
